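Each compound was tested at five concentrations against cells in 96-well plates for 48 hours. Here, GI50 denotes the concentration required for 50% inhibition of growth.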 Activity calls are given as the source filed them. Rule as the data show it: active = GI50 up to about 1.1 µM and inactive = higher.
Assays:
Test in all cases: NCI-60 cell line screen, 48 h
[1] = test system: NCI/ADR-RES
[2] = test system: A498
[3] = test system: SNB-75
[4] = test system: PC-3
[5] = test system: 786-0
[6] = test system: CCRF-CEM
[7] = test system: K562
[8] = test system: UO-31
[9] = test system: NCI-H226
[10] = test system: RPMI-8226
[11] = test system: UACC-62
[12] = test system: Hs-578T
[13] = test system: DU-145
[14] = test system: SN12C
[15] = test system: HL-60
[16] = test system: BT-549
[17] = test system: EKVX
[18] = test system: SW-620
[19] = test system: MDA-N
[20] = test system: HCT-116
[21] = test system: MDA-MB-435
[22] = test system: M14
[23] = test system: RXF 393
[24] = test system: HOP-92
[25] = test system: HCC 2998
[26] = test system: SK-MEL-5
[27] = test system: SK-MEL-2
[28] = test system: MDA-MB-231
[29] = test system: MOLT-4
[30] = test system: IGROV-1
[31] = test system: SF-268
[32] = test system: SR
[33] = test system: T47D
[34] = test system: MCF7
[35] = test system: OVCAR-4
[36] = test system: LOX IMVI
[37] = test system: SNB-19
[38] = test system: Malme-3M
[39] = test system: NCI-H522
[40] = test system: TK-10
[41] = test system: CAKI-1
[42] = test system: SK-MEL-28
[43] = test system: HT-29
[44] = test system: HCT-15
[45] = test system: UACC-257
[46] = test system: NCI-H23
[47] = test system: OVCAR-8
[48] = test system: SF-539
[49] = test system: COLO 205
[50] = test system: U-251
[51] = test system: A549
[52] = test system: KM12
[53] = test system: NCI-H460
[54] = test system: ACHN
[55] = test system: OVCAR-5
[56] = test system: OVCAR-3
[57] = test system: SK-OV-3
[58] = test system: SF-295
[59] = test system: HOP-62

In the case of `Cc1ccc(S(=O)(=O)NC(=O)C2=C(c3ccccc3)[N-]N(C)c3nc4cccc[n+]4nc32)cc1`, the GI50 [1] was > 100 µM (inactive), the GI50 [2] was > 100 µM (inactive) and the GI50 [3] was 57.4 µM (inactive). The GI50 [4] was > 100 µM (inactive), the GI50 [5] was > 100 µM (inactive) and the GI50 [6] was > 100 µM (inactive). The GI50 [7] was > 100 µM (inactive), the GI50 [8] was > 100 µM (inactive) and the GI50 [9] was > 100 µM (inactive). The GI50 [10] was 45.6 µM (inactive), the GI50 [11] was > 100 µM (inactive) and the GI50 [12] was > 100 µM (inactive). For the same compound, the GI50 [13] was > 100 µM (inactive), the GI50 [14] was > 100 µM (inactive) and the GI50 [15] was > 100 µM (inactive). For the same compound, the GI50 [16] was > 100 µM (inactive), the GI50 [17] was 29.1 µM (inactive) and the GI50 [18] was 49.2 µM (inactive). The GI50 [19] was > 100 µM (inactive), the GI50 [20] was > 100 µM (inactive) and the GI50 [21] was > 100 µM (inactive). The GI50 [22] was > 100 µM (inactive), the GI50 [23] was > 100 µM (inactive) and the GI50 [24] was 12.6 µM (inactive). The GI50 [25] was > 100 µM (inactive), the GI50 [26] was 98.9 µM (inactive) and the GI50 [27] was > 100 µM (inactive). For the same compound, the GI50 [28] was 50.9 µM (inactive), the GI50 [29] was 99.5 µM (inactive) and the GI50 [30] was 51.4 µM (inactive). The GI50 [31] was > 100 µM (inactive), the GI50 [32] was > 100 µM (inactive) and the GI50 [33] was 55.1 µM (inactive). The GI50 [34] was 49.9 µM (inactive), the GI50 [35] was > 100 µM (inactive) and the GI50 [36] was 96.4 µM (inactive). For the same compound, the GI50 [37] was > 100 µM (inactive), the GI50 [38] was 99.3 µM (inactive) and the GI50 [39] was 34.4 µM (inactive). The GI50 [40] was > 100 µM (inactive), the GI50 [41] was > 100 µM (inactive) and the GI50 [42] was > 100 µM (inactive). For the same compound, the GI50 [43] was > 100 µM (inactive), the GI50 [44] was > 100 µM and the GI50 [45] was 66.4 µM (inactive). The GI50 [46] was > 100 µM (inactive), the GI50 [47] was 51.6 µM (inactive) and the GI50 [48] was > 100 µM (inactive). The GI50 [49] was 23.1 µM (inactive), the GI50 [50] was > 100 µM (inactive) and the GI50 [51] was > 100 µM (inactive). For the same compound, the GI50 [52] was > 100 µM (inactive), the GI50 [53] was > 100 µM (inactive) and the GI50 [54] was > 100 µM (inactive). For the same compound, the GI50 [55] was > 100 µM (inactive).

`CO[C@H]1c2cccc3cccc(c23)[C@@H]1n1[nH]c(=O)n(C(C)(C)C)c1=O` was tested, and the GI50 [1] was > 100 µM (inactive), the GI50 [2] was > 100 µM (inactive) and the GI50 [3] was > 100 µM (inactive). The GI50 [4] was > 100 µM (inactive), the GI50 [5] was > 100 µM (inactive) and the GI50 [6] was > 100 µM (inactive). For the same compound, the GI50 [7] was > 100 µM (inactive), the GI50 [8] was 69.8 µM (inactive) and the GI50 [9] was > 100 µM (inactive). For the same compound, the GI50 [10] was > 100 µM (inactive), the GI50 [11] was > 100 µM (inactive) and the GI50 [12] was > 100 µM (inactive). For the same compound, the GI50 [13] was > 100 µM (inactive), the GI50 [14] was > 100 µM (inactive) and the GI50 [15] was > 100 µM (inactive). For the same compound, the GI50 [56] was > 100 µM (inactive), the GI50 [16] was > 100 µM (inactive) and the GI50 [17] was > 100 µM (inactive). The GI50 [18] was > 100 µM (inactive), the GI50 [19] was > 100 µM (inactive) and the GI50 [20] was > 100 µM (inactive). The GI50 [21] was > 100 µM (inactive), the GI50 [22] was > 100 µM (inactive) and the GI50 [23] was > 100 µM (inactive). The GI50 [25] was > 100 µM (inactive), the GI50 [27] was > 100 µM (inactive) and the GI50 [28] was > 100 µM (inactive). The GI50 [29] was > 100 µM (inactive), the GI50 [57] was > 100 µM (inactive) and the GI50 [30] was > 100 µM (inactive). For the same compound, the GI50 [31] was > 100 µM (inactive), the GI50 [32] was > 100 µM (inactive) and the GI50 [33] was > 100 µM (inactive). For the same compound, the GI50 [34] was > 100 µM (inactive), the GI50 [35] was > 100 µM (inactive) and the GI50 [36] was > 100 µM (inactive). The GI50 [37] was > 100 µM (inactive), the GI50 [38] was > 100 µM (inactive) and the GI50 [39] was > 100 µM (inactive). For the same compound, the GI50 [40] was > 100 µM (inactive), the GI50 [41] was > 100 µM (inactive) and the GI50 [42] was > 100 µM (inactive). The GI50 [43] was > 100 µM (inactive), the GI50 [44] was > 100 µM and the GI50 [45] was > 100 µM (inactive). For the same compound, the GI50 [46] was > 100 µM (inactive), the GI50 [47] was > 100 µM (inactive) and the GI50 [48] was > 100 µM (inactive). For the same compound, the GI50 [49] was > 100 µM (inactive), the GI50 [50] was > 100 µM (inactive) and the GI50 [51] was > 100 µM (inactive). The GI50 [52] was > 100 µM (inactive), the GI50 [53] was > 100 µM (inactive) and the GI50 [55] was > 100 µM (inactive).

With `N#CCCN(CCC#N)c1ccc(/C=C2\N=C(c3ccccc3)N(c3ccc(F)cc3)C2=O)cc1` the GI50 [1] was > 100 µM (inactive), the GI50 [2] was > 100 µM (inactive) and the GI50 [3] was > 100 µM (inactive). For the same compound, the GI50 [4] was > 100 µM (inactive), the GI50 [5] was > 100 µM (inactive) and the GI50 [7] was > 100 µM (inactive). The GI50 [8] was > 100 µM (inactive), the GI50 [9] was > 100 µM (inactive) and the GI50 [10] was > 100 µM (inactive). For the same compound, the GI50 [11] was > 100 µM (inactive), the GI50 [12] was > 100 µM (inactive) and the GI50 [13] was > 100 µM (inactive). For the same compound, the GI50 [14] was > 100 µM (inactive), the GI50 [56] was > 100 µM (inactive) and the GI50 [16] was > 100 µM (inactive). For the same compound, the GI50 [17] was > 100 µM (inactive), the GI50 [18] was > 100 µM (inactive) and the GI50 [19] was > 100 µM (inactive). The GI50 [20] was > 100 µM (inactive), the GI50 [21] was > 100 µM (inactive) and the GI50 [22] was > 100 µM (inactive). The GI50 [23] was > 100 µM (inactive), the GI50 [24] was > 100 µM (inactive) and the GI50 [26] was > 100 µM (inactive). For the same compound, the GI50 [58] was > 100 µM (inactive), the GI50 [27] was > 100 µM (inactive) and the GI50 [28] was > 100 µM (inactive). The GI50 [29] was > 100 µM (inactive), the GI50 [57] was > 100 µM (inactive) and the GI50 [30] was > 100 µM (inactive). The GI50 [31] was > 100 µM (inactive), the GI50 [32] was > 100 µM (inactive) and the GI50 [33] was > 100 µM (inactive). For the same compound, the GI50 [34] was > 100 µM (inactive), the GI50 [35] was > 100 µM (inactive) and the GI50 [59] was > 100 µM (inactive). For the same compound, the GI50 [36] was > 100 µM (inactive), the GI50 [37] was > 100 µM (inactive) and the GI50 [38] was > 100 µM (inactive). For the same compound, the GI50 [40] was > 100 µM (inactive), the GI50 [41] was > 100 µM (inactive) and the GI50 [42] was > 100 µM (inactive). The GI50 [43] was > 100 µM (inactive), the GI50 [44] was > 100 µM and the GI50 [45] was > 100 µM (inactive). For the same compound, the GI50 [47] was > 100 µM (inactive), the GI50 [48] was > 100 µM (inactive) and the GI50 [49] was > 100 µM (inactive). For the same compound, the GI50 [50] was > 100 µM (inactive), the GI50 [51] was > 100 µM (inactive) and the GI50 [52] was > 100 µM (inactive). The GI50 [53] was > 100 µM (inactive), the GI50 [54] was > 100 µM (inactive) and the GI50 [55] was > 100 µM (inactive).
